{"source": "patent US11760722B2", "about": "(priority 2022, dated 2023)", "key": {"COVID-19 WT Mpro": {"target": "T1, COVID-19 WT Mpro (Severe acute respiratory syndrome coronavirus 2, UniProt P0DTD1)", "T1 construct": "The C-His6-tagged COVID-19 WT Mpro (NC_045512); His6 (C); host or cells: E. coli", "assay": "biochemical", "settings": "WT Mpro 25 nM, substrate 25 μM, 30 min pre-incubation; several values in a cell = repeat determinations"}, "SARS-CoV-2 replicon": {"test_system": "SARS-CoV-2 replicon", "assay": "microbe, parasite or virus in culture", "assay_type": "cell-based", "settings": "read-out: Replicon EC50"}, "[1]": {"test_system": "human coronavirus (HCoV) 229E", "assay": "microbe, parasite or virus in culture", "assay_type": "cell-based, human coronavirus 229E", "settings": "unidentified human coronavirus, 72 h, MRCS cells, HCoV 229E, 3 days, CellTiter Glo; read-out: 229E CPE EC50", "experimental": "Test compounds were provided by the sponsor. Reference compound remdesivir was provided by WuXi AppTec. Compounds were assayed at 8 concentrations (to be defined by sponsor), in duplicate wells.\nMRCS cells were obtained from the ATCC, and maintained in the Minimum Essential Medium supplemented with 10% FBS, 1% L-glutamine, 1% NEAA and 1% penicillin-streptomycin. Minimum Essential Medium supplemented with 5% FBS, 1% L-glutamine, 1% NEAA and 1% penicillin-streptomycin was used as the assay medium.\nCells were seeded in 96 well plates, in 100 μl per well of assay medium, and cultured at 37° C. and 5% CO2 overnight. Next day, test compound was diluted with assay medium and then added into the cells, 50 μl per well. Then 50 μl per well of assay medium diluted virus was added. The final volume of the cell culture was 200 μl per well. […] The CPE were measured by CellTiter Glo following the manufacturer's manual. The antiviral activity of compounds was calculated based on the protection of the virus-induced CPE at each concentration normalized by the virus control.\nEC50 and CC50 values were calculated using the GraphPad Prism software using the nonlinear regression model of log(inhibitor) vs. response—Variable slope (four parameters)."}}, "note": "Values joined by “and” are separate entries in the source; they are usually repeats but may differ in a detail not shown here. Equal values may be shown once. Read-outs that look alike come from different tables or passages of the source.", "data": [{"smiles": "CC(C)(C)[C@H](NC(=O)[C@@H](NC(=O)c1cnccn1)C1CCCCC1)C(=O)N1C[C@H]2[C@@H]([C@H]1C(=O)N[C@H](C#N)C[C@@H]1CCNC1=O)C2(C)C", "note": "[Compound 13]", "values": [{"measurement": "IC50", "setting": "COVID-19 WT Mpro", "value": "0.066 µM and 0.256 µM"}, {"measurement": "EC50", "setting": "SARS-CoV-2 replicon; Severe acute respiratory syndrome coronavirus 2, Huh-7, 24 h", "value": 1.63, "unit": "µM"}, {"measurement": "EC50", "setting": "SARS-CoV-2 replicon", "value": 1.93, "unit": "µM"}, {"measurement": "EC50", "setting": "[1]", "value": 9.81, "unit": "µM"}]}]}
